Source: US20190328665A1, “LIPOSOME COMPOSITIONS ENCAPSULATING MODIFIED CYCLODEXTRIN COMPLEXES AND USES THEREOF” (priority 2014, published 2019)
≈ marks a conversion by molar mass, not a printed value.

Tests used:
[1] = Remote loading of cyclodextrin-encapsulated dyes/drugs into liposomes; type: physicochemical
Protocol: (§1) Equimolar quantities of the drug (0.1 mmol; 30-50 mg) and appropriate cyclodextrin ([…]; 110-185 mg) were dissolved separately in methanol (nearly saturated; ˜1-2 mL) and deionized water (˜10-20 mg/mL), respectively. The methanolic solution of the drug was then added dropwise into the cyclodextrin solution with agitation ensuring a uniform suspension. This suspension was then shaken at 55° C. for 36-48 hours using an Eppendorf Thermomixer R. The solution was filtered to remove particulate matter and flash frozen in a dry ice/acetone bath followed by lyophilization. The lyophilized complex was stored at −20° C. until further use.
The lyophilized powder complex described above was pulverized and incubated with appropriate liposomal solutions (30-40 mg drug equivalent in 6 mL liposomal solution, to achieve loading ratios of 5-8 mg/mL concentrations) for 1 hour at 65° C. They were centrifuged at 1,000×g for 3 minutes to remove particulate matter and then dialyzed against 300 mM sucrose or commercial PBS solution (pH 7.4) overnight to remove material that had not been loaded into the liposomes. The size distributions of the liposomal formulations were characterized using the Malvem ZS90 instrument described above.
The liposomal solution was dialyzed against PBS overnight.
Organic dyes (coumarins) were used to determine whether the modified cyclodextrins could encapsulate and transport hydrophobic compounds across the liposome bilayer. […] It was determined that the most efficient and convenient way to encapsulate the coumarins was by freeze drying (Cao et al. (2005) Drug Dev. Industr. Pharm. 31:747-756; Badr-Eldin et al. (2008) Eur. J. Pharm. Biopharm. 70:819-827). […] Following overnight dialysis to remove unincorporated complexes, the liposomes were subsequently disrupted with methanol and the coumarin fluorescence measured. As shown by fluorescence spectroscopy, all cyclodextrin-dye complexes were incorporated into liposomes with high efficiency (>95%; FIG. 5). […]

[2] = Passive loading of BI-2536 into liposomes; type: physicochemical
Protocol: Method 1: Encapsulation of BI-2536 in the lipid layer. Hydrogenated egg phosphatidylcholine (Avanti Polar Lipids), cholesterol, and DSPE-PEG2000 (Avanti Polar Lipids) (molar ratios 50:45:5) were dissolved in chloroform (20 mL). Ten milligrams of BI-2536 (in 1 mL chloroform) was added and the solvent was evaporated to generate a thin film. One milliliter of PBS (pH 7.4) was added to hydrate the lipid layer, and the mixture was shaken at 50° C. for 2 hours as described above. The vesicle suspension was sonicated for 30 min and then extruded successively through 0.4-, 0.2-, and 0.1-μm polycarbonate membranes (Whatman; Nuclepore Track-Etched Membrane) at 50° C. to obtain the final liposomes with low polydispersity at the desired size. The liposomes were then dialyzed in PBS overnight to remove unentrapped drug. The average size and polydispersity index were then measured by dynamic light-scattering experiments on a Malvem Z90. Drug content was calculated by rupturing the liposomes with an equal volume of methanol and measuring the UV-vis absorbance on a NanoDrop 1000.
Method 2: Hydration of the lipid layer with an aqueous formulation of BI-2536. Hydrogenated egg phosphatidylcholine (Avanti Polar Lipids), cholesterol, and DSPE-PEG2000 (Avanti Polar Lipids) (molar ratios 50:45:5) were dissolved in chloroform (20 mL), and the solvent was evaporated in vacuo to generate a thin film. One milliliter of aqueous BI-2536 (4 mg; pH 5.5) was added to hydrate the lipid layer, and the mixture was shaken at 50° C. for 2 hours as described above. The vesicle suspension was sonicated for 30 minutes and then extruded successively through 0.4-, 0.2-, and 0.1-μm polycarbonate membranes (Whatman; Nuclepore Track-Etched Membrane) at 50° C. to obtain the final liposomes with low polydispersity at the desired size. The liposomes were then dialyzed against PBS overnight to remove unentrapped drug. The average size and polydispersity index were then measured by dynamic light-scattering experiments on a Malvem Z90. Drug content was calculated by rupturing the liposomes with an equal volume of methanol and measuring the UV-vis absorbance on a NanoDrop 1000.
The cyclodextrin-based loading method was also compared with the most common approaches to entrapping hydrophobic and insoluble agents in liposomes. First, direct entrapment of BI-2536 in the lipid bilayer was attempted. BI-2536 was co-evaporated with hydrogenated egg phosphatidylcholine-cholesterol-1,2-distearoyl-sn-glycero-3-phosphoethanolamine-N-[methoxy(polyethylene glycol)-2000 (DSPE-PEG 2000) to prepare a thin film, which was subsequently hydrated with 1 mL PBS and extruded through a 100-nm polycarbonate membrane at 700 psi to prepare small, unilamellar vesicles (average particle size (Zavg) 126 nm; PDI 0.09). Upon overnight dialysis against PBS to remove unentrapped drug, the drug-containing liposomes rapidly swelled (Zavg 539 nm; PDI 0.49) and released nearly 90% of the entrapped drug. Second, the lipid film was hydrated with an aqueous formulation of BI-2536 (passive loading). Hydration of the lipid film, followed by extrusion and dialyses, led to stable liposomes. However, the encapsulation efficiency was <10%, 20-fold less than achievable with the modified cyclodextrins described herein.

[3] = mouse, in vivo, iv, 100 mg/kg
HCT116 xenografts = test: HCT116 subcutaneous xenograft tumor growth; type: in vivo, nude mice
Protocol: (§2) Tumor volume was recorded every 48 hours.

[4] = Phase II / Phase 2 trials; cited from earlier work
in vivo = settings: female, athymic nu/nu, mouse, iv
physchem = type: physicochemical; settings: for solubility: water
Protocol: as §1
Organic dyes (coumarins) were used to determine whether the modified cyclodextrins could encapsulate and transport hydrophobic compounds across the liposome bilayer. Coumarins are very hydrophobic and a dramatic improvement in aqueous solubility was observed after they were encapsulated into 6′-mono-ethylenediamino-6′-deoxy-cyclodextrin (compound III). It was determined that the most efficient and convenient way to encapsulate the coumarins was by freeze drying (Cao et al. (2005) Drug Dev. Industr. Pharm. 31:747-756; Badr-Eldin et al. (2008) Eur. J. Pharm. Biopharm. 70:819-827). […] Once dissolved, the cyclodextrin-coumarin complexes were incubated with pre-formed liposomes exactly as described above, using a pH gradient to drive the compounds across the bilayer. Following overnight dialysis to remove unincorporated complexes, the liposomes were subsequently disrupted with methanol and the coumarin fluorescence measured. As shown by fluorescence spectroscopy, all cyclodextrin-dye complexes were incorporated into liposomes with high efficiency (>95%; FIG. 5). […] The incorporation of coumarin dyes into liposomes was easily discerned by the naked eye, as the coumarin-cyclodextrin liposomes were bright yellow, whereas control liposomes (made without cyclodextrins, for example) were colorless (FIGS. 5A-5C).

[5] = tested on: HCT116 cells with genetically inactivated TP53 alleles; test: Xenograft of HCT116 cells with genetically inactivated TP53 alleles; design: species or system nude mice; settings: mouse, in vivo
Protocol: as §2

RKO xenografts = test: RKO xenograft tumor growth; type: in vivo, nude mice; settings: free drug 150 mg/kg
Protocol: as §2
With the free drug, severe acute toxicity was evident. In previous studies, the free drug was administered by oral gavage, because its solubility is not sufficient for intravenous dosing.

[6] = mouse, in vivo, iv
Protocol: Coumarin 334 was used as a drug surrogate to assess biodistribution and pharmacokinetics of cyclodextrin-encapsulated liposomes. […] Female athymic nu/nu mice bearing HCT116 subcutaneous xenografts were used in the study following a modified protocol described in Macdiarmid et al. (2007) Cancer Cell 11:431-445. When the tumor volumes reached 400-600 mm^3, 12 mice were treated intravenouslys (i.v.) with 200 μL cyclodextrin-encapsulated, liposomal (CYCL-)coumarin 334 (0.5 mg/mL). Posttreatment, four mice were euthanized at time points 2, 24, and 48 hours and tumor, spleen, liver, kidneys, heart, and lungs were excised and weighed. Blood was also collected, and plasma was separated and stored at 4° C. Except for plasma, each frozen tissue was homogenized and sonicated in 0.9% saline [3×volume (μL) of tissue mass (mg)]. […] The samples were centrifuged (6,000×g for 10 minutes) and the fluorescence in the supematants was measured by a CytoFluor II fluorescence multiwall plate reader (Applied Biosystems) using excitation 485 nm/emission 530 nm. […]
To establish biodistribution and pharmacokinetics of the CYCL liposomes, liposomes loaded with coumarin 334 encapsulated in cyclodextrin VI were used to treat HCT116-bearing mice by intravenous (i.v.) injection. Samples from major tissues harvested at 2, 24, and 48 hours post-treatment were analyzed for their fluorescence.

[7] = direct entrapment in lipid bilayer, after extrusion
[8] = direct entrapment in lipid bilayer, after overnight dialysis against PBS

6′,6′,6′,6′,6′,6′,6′-heptakis-succinyl-β-cyclodextrin [IX]
liposome loading of PD-0325901 among cyclodextrins VI, VII, VIII, IX ([1]; acidic or basic liposomes): best liposome loading

CC[C@@H]1C(=O)N(C)c2cnc(Nc3ccc(C(=O)NC4CCN(C)CC4)cc3OC)nc2N1C1CCCC1 [BI-2536]
PDI [2, 7]: 0.09 | average particle size (Zavg) [2, 7]: 126 nm | PDI [2, 8]: 0.49 | average particle size (Zavg) [2, 8]: 539 nm | entrapped drug released ([2]; direct entrapment in lipid bilayer, overnight dialysis against PBS): ~90% | encapsulation efficiency relative to modified cyclodextrins (fold less) ([2]; passive loading): 20 fold | encapsulation efficiency ([2]; passive loading: lipid film hydrated with aqueous BI-2536): < 10% | acute toxicity / survival [3]: somewhat lethargic immediately after drug administration, but survived | tumor regressions (HCT116 xenografts; mouse, in vivo): not with free drug | slowing of tumor growth (HCT116 xenografts; two i.v. doses of 100 mg/kg): ~30% | toxicity in clinical trials [4]: unacceptable toxicity (grade 4 neutropenia) at sub-therapeutic doses | MTD (in vivo): 100 mg/kg | effect of aminated cyclodextrins V and VI on aqueous solubility (physchem): dramatically improved | solubility (physchem): 500 µg/mL (≈ 958 µM) | tumor regressions [5]: not with free drug

O=C(NOC[C@H](O)CO)c1ccc(F)c(F)c1Nc1ccc(I)cc1F [PD-0325901]
toxicity in clinical trials [4]: retinal vein occlusion (RVO) | slowing of tumor growth (RKO xenografts): ~5% | increase in solubility after encapsulation into cyclodextrins (physchem): ~40 fold | solubility (physchem): 100 µg/mL (≈ 207 µM)

CCOC(=O)c1cc2cc3c4c(c2oc1=O)CCCN4CCC3 [coumarin 314]
loading efficiency when encapsulated in unionizable native β-cyclodextrin ([1]; citrate liposomes): only marginally improved the loading efficiency | loading into liposomes in the absence of cyclodextrins ([1]; citrate liposomes, identical conditions): poorly incorporated into liposomes

CC(=O)c1cc2cc3c4c(c2oc1=O)CCCN4CCC3 [coumarin 334]
persistence in blood and tumor [6]: persisted in the blood and tumor | tissue clearance [6]: cleared from most of the tissues examined
